Measurements published in US20260053812A1, “METHODS OF TREATING HYPERTENSION WITH A COMBINATION OF AN ALDOSTERONE SYNTHASE INHIBITOR AND A DIURETIC” (Mineralys Therapeutics, Inc., priority 2022, published 2026).

Assay: Adverse events (TEAEs, SAEs, AESI; Safety Analysis Set)
Text: In analyses performed on the Safety Analysis Set, subjects will be analyzed according to their actual treatment received.

CC(=O)N[C@H]1CC[C@H](NC(=O)CN2CCN(c3nncc(-c4ccc(C)cc4)n3)CC2)CC1 [Compound A HBr]
AE requiring dose titration: Hyperkalemia (100 mg QD Pooled, N 60): 2 (3.3%)
AE requiring dose titration: Hyponatremia (100 mg QD Pooled, N 60): 1 (1.7%)
AE requiring dose titration: Other possibly related (100 mg QD Pooled, N 60): 0
AE requiring dose titration: Other unrelated (100 mg QD Pooled, N 60): 0
AE requiring study drug discontinuation: Hyperkalemia (100 mg QD Pooled, N 60): 2 (3.3%)
AE requiring study drug discontinuation: Hyponatremia (100 mg QD Pooled, N 60): 1 (1.7%)
AE requiring study drug discontinuation: Hypotension (100 mg QD Pooled, N 60): 2 (3.3%)
AE requiring study drug discontinuation: Other possibly related (100 mg QD Pooled, N 60): 1 (1.7%)
AE requiring study drug discontinuation: Other unrelated (100 mg QD Pooled, N 60): 4 (6.7%)
Serious adverse events (SAEs) related to the study medication (Example 1 analysis, whole trial): No serious adverse events
Subjects with TEAE resulting in dose modification (Part 1): 24 subjects
AE requiring dose titration: Hyperkalemia (Part 1 100 mg QD, N 29): 1 (3.4%)
AE requiring dose titration: Hyponatremia (Part 1 100 mg QD, N 29): 0
AE requiring dose titration: Other possibly related (Part 1 100 mg QD, N 29): 0
AE requiring dose titration: Other unrelated (Part 1 100 mg QD, N 29): 0
AE requiring study drug discontinuation: Hyperkalemia (Part 1 100 mg QD, N 29): 2 (6.9%)
AE requiring study drug discontinuation: Hyponatremia (Part 1 100 mg QD, N 29): 0
AE requiring study drug discontinuation: Hypotension (Part 1 100 mg QD, N 29): 1 (3.4%)
AE requiring study drug discontinuation: Other possibly related (Part 1 100 mg QD, N 29): 1 (3.4%)
AE requiring study drug discontinuation: Other unrelated (Part 1 100 mg QD, N 29): 3 (6.0%)
On-treatment TEAE, Cardiac disorders, % (Part 1, 12.5 mg BID (N = 22)): (4.5) %
On-treatment TEAE, Cortisol decreased, % (Part 1, 12.5 mg BID (N = 22)): (9.1) %
On-treatment TEAE, Cortisol decreased, Mild, % (Part 1, 12.5 mg BID (N = 22)): (9.1) %
On-treatment TEAE, General disorders and administration site conditions, % (Part 1, 12.5 mg BID (N = 22)): (9.1) %
On-treatment TEAE, General disorders and administration site conditions, Mild, % (Part 1, 12.5 mg BID (N = 22)): (4.5) %
On-treatment TEAE, Glomerular filtration rate decreased, % (Part 1, 12.5 mg BID (N = 22)): (13.6) %
On-treatment TEAE, Glomerular filtration rate decreased, Mild, % (Part 1, 12.5 mg BID (N = 22)): (13.6) %
On-treatment TEAE, Hyperkalaemia, % (Part 1, 12.5 mg BID (N = 22)): (22.7) %
On-treatment TEAE, Hyperkalaemia, Mild, % (Part 1, 12.5 mg BID (N = 22)): (18.2) %
On-treatment TEAE, Hyperkalaemia, Moderate, % (Part 1, 12.5 mg BID (N = 22)): (4.5) %
On-treatment TEAE, Infections and infestations, % (Part 1, 12.5 mg BID (N = 22)): (4.5) %
On-treatment TEAE, Infections and infestations, Moderate, % (Part 1, 12.5 mg BID (N = 22)): (4.5) %
On-treatment TEAE, Investigations, % (Part 1, 12.5 mg BID (N = 22)): (27.3) %
On-treatment TEAE, Investigations, Mild, % (Part 1, 12.5 mg BID (N = 22)): (22.7) %
On-treatment TEAE, Investigations, Moderate, % (Part 1, 12.5 mg BID (N = 22)): (4.5) %
On-treatment TEAE, Metabolism and nutrition disorders, % (Part 1, 12.5 mg BID (N = 22)): (22.7) %
On-treatment TEAE, Metabolism and nutrition disorders, Mild, % (Part 1, 12.5 mg BID (N = 22)): (18.2) %
On-treatment TEAE, Metabolism and nutrition disorders, Moderate, % (Part 1, 12.5 mg BID (N = 22)): (4.5) %
On-treatment TEAE, Nervous system disorders, % (Part 1, 12.5 mg BID (N = 22)): (4.5) %
On-treatment TEAE, Nervous system disorders, Mild, % (Part 1, 12.5 mg BID (N = 22)): (4.5) %
On-treatment TEAE, Orthostatic hypotension, % (Part 1, 12.5 mg BID (N = 22)): (4.5) %
On-treatment TEAE, Orthostatic hypotension, Mild, % (Part 1, 12.5 mg BID (N = 22)): (4.5) %
On-treatment TEAE, Psychiatric disorders, % (Part 1, 12.5 mg BID (N = 22)): (4.5) %
On-treatment TEAE, Psychiatric disorders, Moderate, % (Part 1, 12.5 mg BID (N = 22)): (4.5) %
On-treatment TEAE, Vascular disorders, % (Part 1, 12.5 mg BID (N = 22)): (9.1) %
On-treatment TEAE, Vascular disorders, Mild, % (Part 1, 12.5 mg BID (N = 22)): (9.1) %
Subjects with any On-treatment TEAEs leading to withdrawal from study drug, % (Part 1, 12.5 mg BID (N = 22)): 4.5%
Subjects with any On-treatment TEAEs, Mild, % (Part 1, 12.5 mg BID (N = 22)): (36.4) %
Subjects with any On-treatment TEAEs, Moderate, % (Part 1, 12.5 mg BID (N = 22)): (22.7) %
TEAE leading to permanent discontinuation from study drug, Orthostatic hypotension, % (Part 1, 12.5 mg BID (N = 22)): 4.5%
TEAE leading to permanent discontinuation from study drug, Vascular disorders, % (Part 1, 12.5 mg BID (N = 22)): 4.5%
On-treatment TEAE, Cardiac disorders, % (Part 1, 12.5 mg QD (N = 23)): (8.7) %
On-treatment TEAE, Dizziness, % (Part 1, 12.5 mg QD (N = 23)): (4.3) %
On-treatment TEAE, Gastrointestinal disorders, % (Part 1, 12.5 mg QD (N = 23)): (8.7) %
On-treatment TEAE, Gastrointestinal disorders, Mild, % (Part 1, 12.5 mg QD (N = 23)): (4.3) %
On-treatment TEAE, General disorders and administration site conditions, % (Part 1, 12.5 mg QD (N = 23)): (4.3) %
On-treatment TEAE, Glomerular filtration rate decreased, % (Part 1, 12.5 mg QD (N = 23)): (4.3) %
On-treatment TEAE, Glomerular filtration rate decreased, Mild, % (Part 1, 12.5 mg QD (N = 23)): (4.3) %
On-treatment TEAE, Hyperkalaemia, % (Part 1, 12.5 mg QD (N = 23)): (26.1) %
On-treatment TEAE, Hyperkalaemia, Mild, % (Part 1, 12.5 mg QD (N = 23)): (17.4) %
On-treatment TEAE, Hyperkalaemia, Moderate, % (Part 1, 12.5 mg QD (N = 23)): (4.3) %
On-treatment TEAE, Hyperkalaemia, Severe, % (Part 1, 12.5 mg QD (N = 23)): (4.3) %
On-treatment TEAE, Hypertension, % (Part 1, 12.5 mg QD (N = 23)): (8.7) %
On-treatment TEAE, Hypertension, Moderate, % (Part 1, 12.5 mg QD (N = 23)): (4.3) %
On-treatment TEAE, Infections and infestations, % (Part 1, 12.5 mg QD (N = 23)): (13.0) %
On-treatment TEAE, Infections and infestations, Mild, % (Part 1, 12.5 mg QD (N = 23)): (13.0) %
On-treatment TEAE, Investigations, % (Part 1, 12.5 mg QD (N = 23)): (13.0) %
On-treatment TEAE, Investigations, Mild, % (Part 1, 12.5 mg QD (N = 23)): (13.0) %
On-treatment TEAE, Metabolism and nutrition disorders, % (Part 1, 12.5 mg QD (N = 23)): (26.1) %
On-treatment TEAE, Metabolism and nutrition disorders, Mild, % (Part 1, 12.5 mg QD (N = 23)): (17.4) %
On-treatment TEAE, Metabolism and nutrition disorders, Moderate, % (Part 1, 12.5 mg QD (N = 23)): (4.3) %
On-treatment TEAE, Nervous system disorders, % (Part 1, 12.5 mg QD (N = 23)): (8.7) %
On-treatment TEAE, Nervous system disorders, Mild, % (Part 1, 12.5 mg QD (N = 23)): (8.7) %
On-treatment TEAE, Orthostatic hypotension, % (Part 1, 12.5 mg QD (N = 23)): (8.7) %
On-treatment TEAE, Orthostatic hypotension, Mild, % (Part 1, 12.5 mg QD (N = 23)): (8.7) %
On-treatment TEAE, Urinary tract infection, % (Part 1, 12.5 mg QD (N = 23)): (4.3) %
On-treatment TEAE, Urinary tract infection, Mild, % (Part 1, 12.5 mg QD (N = 23)): (4.3) %
On-treatment TEAE, Vascular disorders, % (Part 1, 12.5 mg QD (N = 23)): (13.0) %
